Legend:
Assay type in all cases: in vivo
[1] = system: Italian ryegrass (Lolium multiflorum); experiment: Test A preemergence, visual plant response rating; conditions: for Ryegrass, Italian plant response rating: 125 g ai/ha, preemergence, 0 to 100 scale, 0 no effect, 100 complete control; for Ryegrass, Italian plant response rating (0 to 100 scale): 500 g ai/ha Preemergence, approx. 10 days
Summary of the method: (§1)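 Compared with untreated controls, treated plants received a visual injury score on a 0–100 scale around 10 days after application. The compound, in a non-phytotoxic solvent with surfactant, was given as a preemergence soil spray or postemergence at the one- to two-leaf stage.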

[2] = system: barnyardgrass (Echinochloa crus-galli); experiment: Test A preemergence, visual plant response rating; conditions: for Barnyardgrass plant response rating: 125 g ai/ha, preemergence, 0 to 100 scale, 0 no effect, 100 complete control; for Barnyardgrass plant response rating (0 to 100 scale): 500 g ai/ha Preemergence, approx. 10 days
Summary of the method: as §1

[3] = system: foxtail, green (green foxtail, Setaria viridis); experiment: Test A preemergence, visual plant response rating; conditions: for Foxtail, Green plant response rating: 125 g ai/ha, preemergence, 0 to 100 scale, 0 no effect, 100 complete control; for Foxtail, Green plant response rating (0 to 100 scale): 500 g ai/ha Preemergence, approx. 10 days
Summary of the method: as §1

kochia (Kochia scoparia) [4] = experiment: Test A preemergence, visual plant response rating; conditions: for Kochia plant response rating: 125 g ai/ha, preemergence, 0 to 100 scale, 0 no effect, 100 complete control; for Kochia plant response rating (0 to 100 scale): 500 g ai/ha Preemergence, approx. 10 days
Summary of the method: as §1

[5] = system: pigweed (Amaranthus retroflexus); experiment: Test A preemergence, visual plant response rating; conditions: for Pigweed plant response rating: 125 g ai/ha, preemergence, 0 to 100 scale, 0 no effect, 100 complete control; for Pigweed plant response rating (0 to 100 scale): 500 g ai/ha Preemergence, approx. 10 days
Summary of the method: as §1

[6] = system: ragweed (common ragweed, Ambrosia elatior); experiment: Test A preemergence, visual plant response rating; conditions: for Ragweed plant response rating: 125 g ai/ha, preemergence, 0 to 100 scale, 0 no effect, 100 complete control; for Ragweed plant response rating (0 to 100 scale): 500 g ai/ha Preemergence, approx. 10 days
Summary of the method: as §1

[7] = system: Italian ryegrass (Lolium multiflorum); experiment: Test A postemergence, visual plant response rating; conditions: for Ryegrass, Italian plant response rating (0 to 100 scale): 500 g ai/ha, postemergence, 0 is no effect, 100 is complete control; for Ryegrass, Italian plant response rating: Postemergence, 125 g ai/ha, 0 to 100 scale (0 no effect, 100 complete control)
Summary of the method: as §1

[8] = system: barnyardgrass (Echinochloa crus-galli); experiment: Test A postemergence, visual plant response rating; conditions: for Barnyardgrass plant response rating (0 to 100 scale): 500 g ai/ha, postemergence, 0 is no effect, 100 is complete control; for Barnyardgrass plant response rating: Postemergence, 125 g ai/ha, 0 to 100 scale (0 no effect, 100 complete control)
Summary of the method: as §1

[9] = system: blackgrass (Alopecurus myosuroides); experiment: Test A postemergence, visual plant response rating; conditions: for Blackgrass plant response rating (0 to 100 scale): 500 g ai/ha, postemergence, 0 is no effect, 100 is complete control; for Blackgrass plant response rating: Postemergence, 125 g ai/ha, 0 to 100 scale (0 no effect, 100 complete control)
Summary of the method: as §1

corn (Zea mays) = experiment: Test A postemergence, visual plant response rating; conditions: for Corn plant response rating (0 to 100 scale): 500 g ai/ha, postemergence, 0 is no effect, 100 is complete control; for Corn plant response rating: Postemergence, 125 g ai/ha, 0 to 100 scale (0 no effect, 100 complete control)
Summary of the method: as §1

[10] = system: foxtail, green (green foxtail, Setaria viridis); experiment: Test A postemergence, visual plant response rating; conditions: for Foxtail, Green plant response rating (0 to 100 scale): 500 g ai/ha, postemergence, 0 is no effect, 100 is complete control; for Foxtail, Green plant response rating: Postemergence, 125 g ai/ha, 0 to 100 scale (0 no effect, 100 complete control)
Summary of the method: as §1

[11] = system: galium (catchweed bedstraw, Galium aparine); experiment: Test A postemergence, visual plant response rating; conditions: for Galium plant response rating (0 to 100 scale): 500 g ai/ha, postemergence, 0 is no effect, 100 is complete control; for Galium plant response rating: Postemergence, 125 g ai/ha, 0 to 100 scale (0 no effect, 100 complete control)
Summary of the method: as §1

kochia (Kochia scoparia) [12] = experiment: Test A postemergence, visual plant response rating; conditions: for Kochia plant response rating (0 to 100 scale): 500 g ai/ha, postemergence, 0 is no effect, 100 is complete control; for Kochia plant response rating: Postemergence, 125 g ai/ha, 0 to 100 scale (0 no effect, 100 complete control)
Summary of the method: as §1

[13] = system: pigweed (Amaranthus retroflexus); experiment: Test A postemergence, visual plant response rating; conditions: for Pigweed plant response rating (0 to 100 scale): 500 g ai/ha, postemergence, 0 is no effect, 100 is complete control; for Pigweed plant response rating: Postemergence, 125 g ai/ha, 0 to 100 scale (0 no effect, 100 complete control)
Summary of the method: as §1

[14] = system: ragweed (common ragweed, Ambrosia elatior); experiment: Test A postemergence, visual plant response rating; conditions: for Ragweed plant response rating (0 to 100 scale): 500 g ai/ha, postemergence, 0 is no effect, 100 is complete control; for Ragweed plant response rating: Postemergence, 125 g ai/ha, 0 to 100 scale (0 no effect, 100 complete control)
Summary of the method: as §1

[15] = system: wheat (Triticum aestivum); experiment: Test A postemergence, visual plant response rating; conditions: for Wheat plant response rating (0 to 100 scale): 500 g ai/ha, postemergence, 0 is no effect, 100 is complete control; for Wheat plant response rating: Postemergence, 125 g ai/ha, 0 to 100 scale (0 no effect, 100 complete control)
Summary of the method: as §1

[16] = system: barnyardgrass (Echinochloa crus-galli); experiment: Test B flooded paddy test, visual plant response rating; conditions: 250 g ai/ha, Flood, applied to paddy water, 2-leaf stage, evaluated after 13 to 15 days
Summary of the method: (§2)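 Seedlings at 2 leaves; compound into paddy water (3 cm flood, maintained); 13–15 d greenhouse; visual score relative to controls.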

[17] = system: ducksalad (Heteranhera limosa); experiment: as above; conditions: 250 g ai/ha, Flood, applied to paddy water, 2-leaf stage, evaluated after 13 to 15 days
Summary of the method: as §2

rice (Oryza sativa) = experiment: as above; conditions: 250 g ai/ha, Flood, applied to paddy water, 2-leaf stage, evaluated after 13 to 15 days
Summary of the method: as §2

[18] = system: sedge, umbrella (small-flower umbrella sedge, Cyperus difformis); experiment: as above; conditions: 250 g ai/ha, Flood, applied to paddy water, 2-leaf stage, evaluated after 13 to 15 days
Summary of the method: as §2

| SMILES | Ryegrass, Italian plant response rating [1] | Ryegrass, Italian plant response rating (0 to 100 scale) [1] | Barnyardgrass plant response rating [2] | Barnyardgrass plant response rating (0 to 100 scale) [2] | Foxtail, Green plant response rating [3] | Foxtail, Green plant response rating (0 to 100 scale) [3] | Kochia plant response rating (kochia (Kochia scoparia) [4]) | Kochia plant response rating (0 to 100 scale) (kochia (Kochia scoparia) [4]) | Pigweed plant response rating [5] | Pigweed plant response rating (0 to 100 scale) [5] | Ragweed plant response rating [6] | Ragweed plant response rating (0 to 100 scale) [6] | Ryegrass, Italian plant response rating (0 to 100 scale) [7] | Ryegrass, Italian plant response rating [7] | Barnyardgrass plant response rating (0 to 100 scale) [8] | Barnyardgrass plant response rating [8] | Blackgrass plant response rating (0 to 100 scale) [9] | Blackgrass plant response rating [9] | Corn plant response rating (0 to 100 scale) (corn (Zea mays)) | Corn plant response rating (corn (Zea mays)) | other results |
| --- | --- | --- | --- | --- | --- | --- | --- | --- | --- | --- | --- | --- | --- | --- | --- | --- | --- | --- | --- | --- | --- |
| CO/N=C(\c1cc(C)ccc1C)c1c(O)c(C)nn(C)c1=O [Compound 66] | 30 | 50 | 0 | 20 | 30 | 60 | 0 | 20 | 30 | 80 | 20 | 50 | 80 | 30 | 30 | 10 | 50 | 0 | 0 | 0 | Foxtail, Green plant response rating (0 to 100 scale) [10]: 20; Foxtail, Green plant response rating [10]: 0; Galium plant response rating (0 to 100 scale) [11]: 80; Galium plant response rating [11]: 60; Kochia plant response rating (0 to 100 scale) (kochia (Kochia scoparia) [12]): 40; Kochia plant response rating (kochia (Kochia scoparia) [12]): 20; Pigweed plant response rating (0 to 100 scale) [13]: 50; Pigweed plant response rating [13]: 50; Ragweed plant response rating (0 to 100 scale) [14]: 50; Ragweed plant response rating [14]: 40; Wheat plant response rating (0 to 100 scale) [15]: 10; Wheat plant response rating [15]: 0; Plant response rating, Barnyardgrass (0 to 100 scale, 0 is no effect, 100 is complete control) [16]: 0; Plant response rating, Ducksalad (0 to 100 scale, 0 is no effect, 100 is complete control) [17]: 0; Plant response rating, Rice (0 to 100 scale, 0 is no effect, 100 is complete control) (rice (Oryza sativa)): 0; Plant response rating, Sedge, Umbrella (0 to 100 scale, 0 is no effect, 100 is complete control) [18]: 0 |
| CON=C(c1cccc(C)c1)c1c(O)c(Cl)nn(C)c1=O [Compound 128] | 0 | 20 | 0 | 30 | 0 | 10 | 30 | 80 | 100 | 80 | 60 | 80 | 10 | 0 | 30 | 10 | 10 | 0 | 0 | 0 | Foxtail, Green plant response rating (0 to 100 scale) [10]: 30; Foxtail, Green plant response rating [10]: 20; Galium plant response rating (0 to 100 scale) [11]: 90; Galium plant response rating [11]: 70; Kochia plant response rating (0 to 100 scale) (kochia (Kochia scoparia) [12]): 70; Kochia plant response rating (kochia (Kochia scoparia) [12]): 50; Pigweed plant response rating (0 to 100 scale) [13]: 60; Pigweed plant response rating [13]: 30; Ragweed plant response rating (0 to 100 scale) [14]: 80; Ragweed plant response rating [14]: 50; Wheat plant response rating (0 to 100 scale) [15]: 10; Wheat plant response rating [15]: 0; Plant response rating, Barnyardgrass (0 to 100 scale, 0 is no effect, 100 is complete control) [16]: 0; Plant response rating, Ducksalad (0 to 100 scale, 0 is no effect, 100 is complete control) [17]: 40; Plant response rating, Rice (0 to 100 scale, 0 is no effect, 100 is complete control) (rice (Oryza sativa)): 30; Plant response rating, Sedge, Umbrella (0 to 100 scale, 0 is no effect, 100 is complete control) [18]: 0 |
